In patent publication US20240398825A1 (NANJING DELOVA BIOTECH CO. LTD., priority 2018, published 2024):
Values after ≈ are worked out from the molar mass of the structure shown.

Columns and labels:
[1] = Solubility of meloxicam in organic base or alkaline amino acid solutions (Comparative Example A4); type: physicochemical; settings: for solubility at 24 h: 25 °C, shaking at 25° C. for 24 h, n = 3
[2] = Solubility study of meloxicam in injectable solution; type: physicochemical; settings: aqueous with cosolvent or surfactant or cyclodextrin; PEG 400 300 mg/mL, pH 7.7-8.0 (NaOH/citric acid)
[3] = Solubility of meloxicam in PEG 200, PEG300 or PEG600; type: physicochemical; settings: 25 °C, organic solvent or mixture, thermodynamic from solid, read-out: Solubility (shaking at 25° C. for 24 h)
[4] = cited from earlier work
[5] = cited from earlier work; remark: listed apart in the source
[6] = physchem; settings: 25 °C, water, thermodynamic from solid

Q: What does the source list for `Cc1cnc(NC(=O)C2=C(O)c3ccccc3S(=O)(=O)N2C)s1` [Meloxicam, 4-hydroxy-2-methyl-N-(5-methyl-2-thiazolyl)-2H-1,2-benzothiazine-3-carboxamide-1,1-dioxide]?
A: solubility at 24 h ([1]; Tris solution, aqueous buffer, thermodynamic from solid, Tris 5 mg/mL): 5.54 mg/mL (≈ 15.8 mM); solubility at 24 h ([1]; Tris solution, aqueous buffer, thermodynamic from solid, Tris 10 mg/mL): 9.07 mg/mL (≈ 25.8 mM); solubility at 24 h ([1]; Tris solution, aqueous buffer, thermodynamic from solid, Tris 15 mg/mL): 11.4 mg/mL (≈ 32.4 mM); solubility at 24 h ([1]; Tris solution, aqueous buffer, thermodynamic from solid, Tris 20 mg/mL): 14.3 mg/mL (≈ 40.6 mM); solubility at 24 h ([1]; Tris solution, aqueous buffer, thermodynamic from solid, Tris 30 mg/mL): 18.3 mg/mL (≈ 52.1 mM); stability of the solutions in organic base or basic amino acid ([1]; after standing overnight at room temperature): Crystals were precipitated; solubility at 24 h ([1]; arginine solution, aqueous buffer, thermodynamic from solid, Arginine 7 mg/mL): 11.2 mg/mL (≈ 32 mM); solubility at 24 h ([1]; arginine solution, aqueous buffer, thermodynamic from solid, Arginine 14 mg/mL): 11.6 mg/mL (≈ 32.9 mM); solubility at 24 h ([1]; arginine solution, aqueous buffer, thermodynamic from solid, Arginine 20 mg/mL): 11.6 mg/mL (≈ 33 mM); solubility at 24 h ([1]; arginine solution, aqueous buffer, thermodynamic from solid, Arginine 30 mg/mL): 12.8 mg/mL (≈ 36.4 mM); solubility at 24 h ([1]; arginine solution, aqueous buffer, thermodynamic from solid, Arginine 40 mg/mL): 14.2 mg/mL (≈ 40.5 mM); solubility ([1]; high concentration organic base or basic amino acid solution, aqueous buffer, thermodynamic from solid, solubility of meloxicam in a high concentration organic base or basic amino acid, high concentration organic base or basic amino acid): ≥ 10 mg/mL; solubility at 24 h ([1]; lysine solution, aqueous buffer, thermodynamic from solid, Lysine 6 mg/mL): 10.5 mg/mL (≈ 29.7 mM); solubility at 24 h ([1]; lysine solution, aqueous buffer, thermodynamic from solid, Lysine 19 mg/mL): 29.8 mg/mL (≈ 84.7 mM); solubility at 24 h ([1]; lysine solution, aqueous buffer, thermodynamic from solid, Lysine 24 mg/mL): 35.9 mg/mL (≈ 102 mM); solubility at 24 h ([1]; meglumine solution, aqueous buffer, thermodynamic from solid, Meglumine 5 mg/mL): 8.01 mg/mL (≈ 22.8 mM); solubility at 24 h ([1]; meglumine solution, aqueous buffer, thermodynamic from solid, Meglumine 10 mg/mL): 17.8 mg/mL (≈ 50.7 mM); solubility at 24 h ([1]; meglumine solution, aqueous buffer, thermodynamic from solid, Meglumine 15 mg/mL): 24.6 mg/mL (≈ 70.1 mM); solubility [2]: 60 mg/mL (≈ 171 mM); solubility at 24 h ([3]; Cosolvent PEG200): 3.6 mg/mL (≈ 10.2 mM); solubility at 24 h ([3]; Cosolvent PEG300): 2.81 mg/mL (≈ 8 mM); solubility at 24 h ([3]; Cosolvent PEG600): 3.18 mg/mL (≈ 9.05 mM); solubility in water ([4]; 25° C.): 0.003414 mg/mL (≈ 0.00972 mM); solubility in chloroform, acetone and ethanol [4]: slightly soluble; maximum solubility in pure PEG 400 ([5]; Zaira J. Cárdenas et al.): 9.2 mg/mL; solubility of meloxicam in pure PEG 400 ([5]; found by Neelam Seeder et al.): 3.763 mg/mL; solubility at 24 h [6]: 0.02 mg/mL (≈ 0.0569 mM)
